Molecules are shown by their SMILES.

One experiment has as its target WDR5 (Homo sapiens, UniProt P61964). The experiment in a line: WDR5 HTRF binding assay. As to conditions: read-out: (a) WDR5 HTRF Pep Val v.1[Inhibitor/IC50]Qualified AC50. In outline:
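6 nM WDR5 and 20 nM biotin-MLL1 WIN peptide (3762-3773) were incubated with compound (12-point, 3-fold dilutions) in pH 7.5 Hepes/NaCl/DTT buffer for 20 min at rt. Streptavidin-APC plus anti-His-Eu were then added for 1 hr, with HTRF read at 665/615. IC50 was fit from control-normalized activity; the counter assay used 15 nM biotin-PEG-His peptide.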

The target of experiment [1] is wild type MLL1 four-member complex (MLL1-4C) (Homo sapiens, UniProt P61964). The experiment in a line: MLL1 LC-MS assay (SAH production). Format: biochemical. As to conditions: read-out: (b) MLL LCMS Peptide Val.v.1 Qualified AC50. An outline of the steps:
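MLL1-4C (30 nM final) was preincubated 20 min with compound (3-fold dilutions, 8 or 12 points) and SAM in Tris-HCl pH 8.0 buffer. H3K4me0 peptide (histone H3[1-21]-biotin) was then added, giving final 2.5 μM SAM and 10 μM substrate, and reactions ran 120 min at rt. After TFA/d4-SAH quench, SAH was quantified by LC-MS/MS and IC50 fitted from control-normalised activity.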

In a further experiment the test system is MV4-11 cells. As to the kind of experiment: MV4-11 6-day cell growth CTG (CellTiter-Glo) assay. Format: cell-based. As to conditions: Homo sapiens, MV4-11, 144 h, 6 days, read-out: (c) MLL/WDR5 cell proliferation assay//MLL/WDR5 proliferation MV4:11 Qualified AC50. In outline:
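Exponentially growing MV4-11 AML cells (RPMI 1640, 10% FBS) seeded at 300 cells/well with 12-point 1:3 compound dilutions, top final concentration 50 μM. Viability read by CellTiter-Glo luminescence after 6 days at 37° C; % inhibition vs DMSO-only wells fitted to dose-response for IC50.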
For orientation: In ATP-based viability assays light output follows the ATP content of the culture.

Consider `CCOc1cc([C@H](C)N2CCc3c(cc(CCN(C)CC(C)O)cc3-c3cc(C)cnc3C)C2=O)ncc1C#N` (stereo partly drawn) [Example 246], for which the IC50 on WDR5 was 10 to 1000 nM. The AC50 (in experiment [1]; in the experiment on MV4-11 cells) was 10 to 1000 nM throughout.

Regarding `CCOc1cc([C@H](C)N2CCc3c(cc(CCN(C)CC)cc3-c3cc(OC)cnc3C)C2=O)ncc1C#N` [Example 167, (S)-4-ethoxy-6-(1-(7-(2-(ethyl(methyl)amino)ethyl)-5-(5-methoxy-2-methylpyridin-3-yl)-1-oxo-3,4-dihydroisoquinolin-2(1H)-yl)ethyl)nicotinonitrile], on WDR5, the IC50 is under 10 nM. The AC50 (in experiment [1]; in the experiment with MV4-11 cells) was 10 to 1000 nM each time.

Regarding `CCOc1cc([C@H](C)N2CCc3c(cc(CCN(C)CC)cc3-c3cncn3C)C2=O)ncc1C#N` [Example 157, (S)-4-ethoxy-6-(1-(7-(2-(ethyl(methyl)amino)ethyl)-5-(1-methyl-1H-imidazol-5-yl)-1-oxo-3,4-dihydroisoquinolin-2(1H)-yl)ethyl)nicotinonitrile], the IC50 on WDR5 is 10 to 1000 nM. The AC50 in experiment [1] was in the range of 10 to 1000 nM; in the experiment with MV4-11 cells, 1000 to 25000 nM.

For `CCOc1cc([C@H](C)N2CCc3c(cc(CCN(C)CC)cc3-c3cc(N)cnc3C(F)(F)F)C2=O)ncc1C#N` [Example 138, (S)-6-(1-(5-(5-amino-2-(trifluoromethyl)pyridin-3-yl)-7-(2-(ethyl(methyl)amino)ethyl)-1-oxo-3,4-dihydroisoquinolin-2(1H)-yl)ethyl)-4-ethoxynicotinonitrile], the IC50 at WDR5 is under 10 nM. In addition, the AC50 (in experiment [1]; in the experiment on MV4-11 cells) was 10 to 1000 nM each time.

Regarding `CCOc1cc([C@H](C)N2CCc3c(cc(CCN(C)CC)cc3-c3cn(C)c(=O)c(C)c3C)C2=O)ncc1C#N` [Example 125, (S)-4-ethoxy-6-(1-(7-(2-(ethyl(methyl)amino)ethyl)-1-oxo-5-(1,4,5-trimethyl-6-oxo-1,6-dihydropyridin-3-yl)-3,4-dihydroisoquinolin-2(1H)-yl)ethyl)nicotinonitrile], the IC50 on WDR5 is under 10 nM. For the same compound, the AC50 (in experiment [1]; with MV4-11 cells) was 10 to 1000 nM throughout.

As for `CNc1nccn1Cc1cc(-c2cc(CO)cnc2Cl)c2ccn(Cc3cc4c(C)cccc4[nH]3)c(=O)c2c1` [Example 107, 5-(2-chloro-5-(hydroxymethyl)pyridin-3-yl)-2-((4-methyl-1H-indol-2-yl)methyl)-7-((2-(methylamino)-1H-imidazol-1-yl)methyl)isoquinolin-1(2H)-one], the IC50 at WDR5 was 10 to 1000 nM. For the same compound, the AC50 (in experiment [1]; with MV4-11 cells) was 10 to 1000 nM throughout.

`CCOc1cc([C@@H](C)N2CCc3c(cc(Cn4ccnc4NC)cc3C3CC3)C2=O)ncc1C#N` [Example 82, (R)-6-(1-(5-cyclopropyl-7-((2-(methylamino)-1H-imidazol-1-yl)methyl)-1-oxo-3,4-dihydroisoquinolin-2(1H)-yl)ethyl)-4-ethoxynicotinonitrile]: the IC50 on WDR5 lay in the range of 10 to 1000 nM. Moreover, the AC50 (in experiment [1]; in the experiment with MV4-11 cells) was 10 to 1000 nM each time.

For the compound `CCOc1cc([C@H](C)N2CCc3c(CN(C)C)cc(Cn4ccnc4NC)cc3C2=O)ncc1Cl` [Example 20, (S)-2-(1-(5-chloro-4-ethoxypyridin-2-yl)ethyl)-5-((dimethylamino)methyl)-7-((2-(methylamino)-1H-imidazol-1-yl)methyl)-3,4-dihydroisoquinolin-1(2H)-one], on WDR5, the IC50 lay within 10 to 1000 nM. For the same compound, the AC50 (in experiment [1]; with MV4-11 cells) was 10 to 1000 nM in each case.

In the case of `CCOc1cc([C@H](C)N2CCc3c(cc(CCN4CC(F)C4)cc3-c3cn(C)c(=O)cc3C(F)(F)F)C2=O)ncc1C#N` [Example 249], the IC50 on WDR5 is 10 to 1000 nM. The AC50 (in experiment [1]; in the experiment with MV4-11 cells) was 10 to 1000 nM each time.

On to `CCOc1cc([C@H](C)N2CCc3c(cc(CCN(C)CC)cc3-c3cn(C)nc3C(F)F)C2=O)ncc1C#N` [Example 126, (S)-6-(1-(5-(3-(difluoromethyl)-1-methyl-1H-pyrazol-4-yl)-7-(2-(ethyl(methyl)amino)ethyl)-1-oxo-3,4-dihydroisoquinolin-2(1H)-yl)ethyl)-4-ethoxynicotinonitrile], for which, at WDR5, the IC50 was under 10 nM. For the same compound, the AC50 (in experiment [1]; in the experiment with MV4-11 cells) was 10 to 1000 nM in each case.

As for `CCOc1cc([C@H](C)N2CCc3c(cc(CCN4C[C@@H](OC)[C@H]4C)cc3-c3ccc(F)nc3C)C2=O)ncc1C#N` [Example 244], the IC50 on WDR5 was in the range of 10 to 1000 nM. In addition, the AC50 (in experiment [1]; in the experiment on MV4-11 cells) was 10 to 1000 nM in each case.

In the case of `CCOc1cc([C@H](C)N2CCc3c(CN(C)C4CC4)cc(Cn4ccnc4NC)cc3C2=O)ncc1F` [Example 21, (S)-5-((cyclopropyl(methyl)amino)methyl)-2-(1-(4-ethoxy-5-fluoropyridin-2-yl)ethyl)-7-((2-(methylamino)-1H-imidazol-1-yl)methyl)-3,4-dihydroisoquinolin-1(2H)-one], the IC50 on WDR5 was 10 to 1000 nM. Also, the AC50 (in experiment [1]; with MV4-11 cells) was 10 to 1000 nM throughout.

With `CNc1nccn1Cc1cc2c(c(-c3cn(C)nc3C)c1)CCN([C@H](C)c1cc(OC)c(F)cn1)C2=O` [Example 71, (R)-5-(1,3-dimethyl-1H-pyrazol-4-yl)-2-(1-(5-fluoro-4-methoxypyridin-2-yl)ethyl)-7-((2-(methylamino)-1H-imidazol-1-yl)methyl)-3,4-dihydroisoquinolin-1(2H)-one], the IC50 on WDR5 is 10 to 1000 nM. Also, the AC50 (in experiment [1]; in the experiment with MV4-11 cells) was 10 to 1000 nM in each case.

Take `CCOc1cc([C@H](C)N2CCc3c(cc(CCN4C[C@@H](O)C[C@H]4C)cc3-c3ccc(F)nc3C)C2=O)ncc1C#N` [Example 226]: at WDR5, the IC50 was under 10 nM. The AC50 (in experiment [1]; in the experiment on MV4-11 cells) was 10 to 1000 nM in each case.

Regarding `CCOc1cc([C@H](C)N2CCc3c(cc(CCN(C)CC)cc3-c3ccncc3Cl)C2=O)ncc1C#N` [Example 152, (S)-6-(1-(5-(3-chloropyridin-4-yl)-7-(2-(ethyl(methyl)amino)ethyl)-1-oxo-3,4-dihydroisoquinolin-2(1H)-yl)ethyl)-4-ethoxynicotinonitrile], the IC50 at WDR5 was in the range of 10 to 1000 nM. Besides, the AC50 (in experiment [1]; in the experiment on MV4-11 cells) was 10 to 1000 nM throughout.

Take `CNc1nccn1Cc1cc(CN2CC(OC)C2)c2c(c1)C(=O)N([C@@H](C)c1cc(OC)c(F)cn1)CC2` [Example 31, (S)-2-(1-(5-fluoro-4-methoxypyridin-2-yl)ethyl)-5-((3-methoxyazetidin-1-yl)methyl)-7-((2-(methylamino)-1H-imidazol-1-yl)methyl)-3,4-dihydroisoquinolin-1(2H)-one]: the IC50 at WDR5 is 10 to 1000 nM. In addition, the AC50 (in experiment [1]; in the experiment with MV4-11 cells) was 10 to 1000 nM each time.

For the compound `CCOc1cc([C@@H](C)N2CCc3c(cc(CCN4C[C@@H](O)[C@H]4C)cc3-c3cc(C)ncc3C)C2=O)ncc1C#N` [Example 223], the IC50 on WDR5 lay within 10 to 1000 nM. The AC50 (in experiment [1]; in the experiment on MV4-11 cells) was 10 to 1000 nM each time.

Consider `CCOc1cc([C@H](C)N2CCc3c(cc(CCN(C)CC)cc3-c3cc(C)ncc3Cl)C2=O)ncc1C#N` [Example 166, (S)-6-(1-(5-(5-chloro-2-methylpyridin-4-yl)-7-(2-(ethyl(methyl)amino)ethyl)-1-oxo-3,4-dihydroisoquinolin-2(1H)-yl)ethyl)-4-ethoxynicotinonitrile], for which the IC50 on WDR5 was under 10 nM. Also, the AC50 (in experiment [1]; with MV4-11 cells) was 10 to 1000 nM in each case.

With `CCOc1cc(C(C)N2CCc3c(cc(CCN(C)CCF)cc3-c3cn(C)nc3C)C2=O)ncc1C#N` (stereo not drawn) [Example 241], the IC50 at WDR5 was in the range of 10 to 1000 nM. In addition, the AC50 (in experiment [1]; in the experiment with MV4-11 cells) was 10 to 1000 nM in each case.

As to `CCOc1cc(C(C)N2CCc3c(cc(CCN(C)CC)cc3C3CC3)C2=O)ncc1C#N` (stereo not drawn) [Example 158, 6-(1-(5-cyclopropyl-7-(2-(ethyl(methyl)amino)ethyl)-1-oxo-3,4-dihydroisoquinolin-2(1H)-yl)ethyl)-4-ethoxynicotinonitrile], the IC50 on WDR5 lay in the range of 10 to 1000 nM. Further, the AC50 lay in the range of 10 to 1000 nM in experiment [1] and 1000 to 25000 nM in the experiment with MV4-11 cells.

Regarding `CCOc1cc(C(C)N2CCc3c(cc(CCN(C)CC)cc3-c3cc(C(C)O)cnc3Cl)C2=O)ncc1C#N` (stereo not drawn) [Example 153, 6-(1-(5-(2-chloro-5-(1-hydroxyethyl)pyridin-3-yl)-7-(2-(ethyl(methyl)amino)ethyl)-1-oxo-3,4-dihydroisoquinolin-2(1H)-yl)ethyl)-4-ethoxynicotinonitrile], the IC50 on WDR5 lay in the range of 10 to 1000 nM. The AC50 (in experiment [1]; in the experiment with MV4-11 cells) was 10 to 1000 nM throughout.

On to `CNc1nccn1Cc1cc(-c2cc(CO)cnc2Cl)c2ccn(Cc3ccc(OC)c(F)c3)c(=O)c2c1` [Example 104, 5-(2-chloro-5-(hydroxymethyl)pyridin-3-yl)-2-(3-fluoro-4-methoxybenzyl)-7-((2-(methylamino)-1H-imidazol-1-yl)methyl)isoquinolin-1(2H)-one], for which the IC50 on WDR5 lay in the range of 10 to 1000 nM. In addition, the AC50 (in experiment [1]; in the experiment with MV4-11 cells) was 10 to 1000 nM each time.
